Experimental data taken from patent publication US12240862B2, “Inhibitors of peptidylarginine deiminases” (Gilead Sciences, Inc., priority 2020, dated 2025).

Biological target: T1, human PAD4 (Homo sapiens, UniProt Q9UM07)
T1 construct: human PAD4 (NM_012387), A2P663, was PCR amplified; His-SUMO (N, cleaved yes); made in house; host or cells: E. coli BL21(DE3)
Assay: In vitro PAD4 BAEE biochemical assay
Conditions: human PAD4, BAEE substrate; 5 nM PAD4, 2 mM calcium chloride, 3 mM BAEE; geometric mean of multiple experiments
Experimental: The PCR product was ligated into linearized pET-SUMO vector (Invitrogen, Carlsbad, CA), which is part of the Champion™ pET SUMO Protein Expression System. After sequence verification for the correct orientation, the pET-SUMO-hPAD4 expression plasmid was transformed into BL21(DE3) cells.
E. Coli BL21(DE3) cells were inoculated in LB medium with kanamycin at 37° C. until A600 nm reached about 0.5. Protein expression was induced by addition of 0.5 mM IPTG (final) and continued overnight at 16° C. at 220 rpm.
Cells were harvested by centrifugation at 5000 rpm for 10 minutes at 4° C. The pellet was resuspended in 300 ml lysis buffer (20 mM Tris-HCl, pH 8.0, 1 mM EDTA, 500 mM NaCl, 1 mM (tris(2-carboxyethyl)phosphine) (TCEP), 10% glycerol, and 1% Triton X100 and EDTA free protease inhibitor) and lysed by 3× passage through a microfluidizer (Microfluidics, Newton, MA) at 18,000 psi. The cell lysate was clarified by centrifugation at 30,000 rpm for 60 minutes at 4° C. […] Bound protein was eluted with a 0-100% linear gradient of 100 mL Ni-B buffer (Ni A buffer+0.5 M Imidazole).
The protein was then reloaded onto a Ni—HP column for a reverse purification step and recovered in flow through fraction. The protein with His-Sumo tag removed was then polished using a 16/60 Superdex-200 gel filtration column with gel filtration buffer (20 mM Tris pH 8.0, NaCl 400 mM and 1 mM TCEP). The fractions containing the protein were pulled and frozen at −80° C.
The enzymatic activity of human PAD4 was monitored in a biochemical assay in the presence or absence of compounds using the small peptidyl arginine mimic BAEE (Na-Benzoyl-L-arginine ethyl ester hydrochloride) as substrate. PAD4 activity led to deamination of BAEE and release of ammonia. Levels of ammonia were monitored by using an amine coupling reaction and were indicative of PAD4 enzymatic activity.
One hundred nanoliters of test compounds dissolved in DMSO at various concentrations were dispensed into a 384-well black OptiPlate using a Labcyte Echo instrument. Ten microliters of a solution of recombinant PAD4 and calcium chloride diluted in PAD4 assay buffer (50 mM MOPS [3-(N-morpholino) propanesulfonic acid], pH 7.6; 50 mM sodium chloride; 0.05% Tween-20; 2 mM dithiothreitol) was added to the compound-containing plate and was incubated for 30 minutes at 25° C. Ten microliters of a solution of BAEE (Sigma-Aldrich #B4500) diluted in PAD4 assay buffer was then added to start the reaction. Final concentrations were 5 nM PAD4, 2 mM calcium chloride, and 3 mM BAEE. The reaction mixture was incubated at 25° C. for 2 hours and was stopped with the addition of 10 microliters of a solution of 75 mM EDTA (Ethylenediaminetetraacetic acid) in PAD4 assay buffer. Thirty microliters of detection solution (5 mM o-phthalaldehyde, 50 mM MOPS [3-(N-morpholino) propanesulfonic acid], pH 7.6; 50 mM sodium chloride; 0.05% Tween-20; 5 mM dithiothreitol) was then added and the reaction was incubated for 1 hour at 25° C.

T1 sequence (Q9UM07 2-663): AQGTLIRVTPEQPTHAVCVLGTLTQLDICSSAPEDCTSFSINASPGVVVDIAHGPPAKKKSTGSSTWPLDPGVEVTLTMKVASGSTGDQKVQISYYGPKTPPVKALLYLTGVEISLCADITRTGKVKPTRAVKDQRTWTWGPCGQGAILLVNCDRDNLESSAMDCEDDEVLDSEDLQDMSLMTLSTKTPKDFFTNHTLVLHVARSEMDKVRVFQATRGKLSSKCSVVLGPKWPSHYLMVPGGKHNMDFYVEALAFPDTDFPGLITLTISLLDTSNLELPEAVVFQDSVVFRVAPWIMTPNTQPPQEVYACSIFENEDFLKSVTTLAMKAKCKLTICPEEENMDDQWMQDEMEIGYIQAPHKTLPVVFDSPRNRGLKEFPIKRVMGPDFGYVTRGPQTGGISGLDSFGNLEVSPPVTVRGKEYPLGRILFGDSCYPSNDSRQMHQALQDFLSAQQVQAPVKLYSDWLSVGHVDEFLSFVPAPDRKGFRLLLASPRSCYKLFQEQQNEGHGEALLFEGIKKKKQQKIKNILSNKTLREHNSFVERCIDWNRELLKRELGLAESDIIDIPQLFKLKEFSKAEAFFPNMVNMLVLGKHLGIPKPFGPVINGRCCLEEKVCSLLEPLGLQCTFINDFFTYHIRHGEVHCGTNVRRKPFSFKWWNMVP

SMILES	IC50 [µM]
COc1cc(C(=O)N2[C@H]3CC[C@@H]2[C@H](N)C3)cc2nc(-c3cc4ccc([C@@H](C)NC(=O)[C@H](C)OC)nc4n3CC3CC3)c(C)n12 [Example 34, (2~{S})-~{N}-[(1~{R})-1-[2-[7-[(1~{R},2~{R}, 4~{S})-2-amino-7-azabicyclo[2.2.1]heptane-7-carbonyl]-5-methoxy-3-methylimidazo [1,2-a]pyridin-2-yl]-1-(cyclopropylmethyl)pyrrolo[2,3-b]pyridin-6-yl]ethyl]-2-methoxypropanamide]	0.0579
COc1cc(C(=O)N2C[C@H](N)C[C@@H](F)C2)cc2nc(-c3cc4ccc([C@@H](C)NC(=O)C56CC(F)(C5)C6)nc4n3CC3CC3)c(C)n12 [Example 36, ~{N}-[(1~{R})-1-[2-[7-[(3~{R}, 5~{R})-3-amino-5-fluoropiperidine-1-carbonyl]-5-methoxy-3-methylimidazo[1,2-a]pyridin-2-yl]-1-(cyclopropylmethyl)pyrrolo[2,3-b]pyridin-6-yl]ethyl]-3-fluorobicyclo[1.1.1] pentane-1-carboxamide]	0.369
COc1cc(C(=O)N2CCC[C@@H](N)CC2)cc2nc(-c3cc4ccc([C@@H](C)NC(=O)C56CC(F)(C5)C6)nc4n3CC3CC3)c(C)n12 [Example 38, ~{N}-[(1~{R})-1-[2-[7-[(4~{R})-4-aminoazepane-1-carbonyl]-5-methoxy-3-methylimidazo[1,2-a]pyridin-2-yl]-1-(cyclopropylmethyl)pyrrolo[2,3-b]pyridin-6-yl]ethyl]-3-fluorobicyclo[1.1.1] pentane-1-carboxamide]	30.6
COc1cc(C(=O)N2[C@H]3CC[C@@H]2[C@H](N)C3)cc2nc(-c3cc4ccc([C@@H](C)NC(=O)CC(C)(C)OC)nc4n3CC3CC3)c(C)n12 [Example 39, ~{N}-[(1~{R})-1-[2-[7-[(1~{R},2~{R},4~{S})-2-amino-7-azabicyclo[2.2.1]heptane-7-carbonyl]-5-methoxy-3-methylimidazo[1,2-a]pyridin-2-yl]-1-(cyclopropylmethyl)pyrrolo[2,3-b]pyridin-6-yl]ethyl]-3-methoxy-3-methylbutanamide]	0.0862
COc1cc(C(=O)N2[C@H]3CC[C@@H]2[C@H](N)C3)cc2nc(-c3cc4ccc([C@@H](C)NC(=O)[C@@H](C)OC)nc4n3CC3CC3)c(C)n12 [Example 40, (2~{R})-~{N}-[(1~{R})-1-[2-[7-[(1~{R},2~{R},4~{S})-2-amino-7-azabicyclo [2.2.1]heptane-7-carbonyl]-5-methoxy-3-methylimidazo [1,2-a]pyridin-2-yl]-1-(cyclopropylmethyl)pyrrolo[2,3-b]pyridin-6-yl]ethyl]-2-methoxypropanamide]	0.0645
COc1cc(C(=O)N2[C@H]3CC[C@@H]2[C@H](N)C3)cc2nc(-c3cc4ccc([C@@H](C)NC(=O)C5(C(F)(F)F)CCC5)nc4n3CC3CC3)c(C)n12 [Example 44, ~{N}-[(1~{R})-1-[2-[7-[(1~{R},2~{R},4~{S})-2-amino-7-azabicyclo[2.2.1]heptane-7-carbonyl]-5-methoxy-3-methylimidazo [1,2-a]pyridin-2-yl]-1-(cyclopropylmethyl)pyrrolo[2,3-b]pyridin-6-yl]ethyl]-1-(trifluoromethyl) cyclobutane-1-carboxamide]	0.0561

These reach a lower IC50. Values come first.

IC50 [µM]	SMILES
0.027	COc1cc(C(=O)N2[C@H]3CC[C@@H]2[C@H](N)C3)cc2nc(-c3cc4ccc([C@@H](C)NC(=O)C5(OC)CCC5)nc4n3CC3CC3)c(C)n12 [Example 41, ~{N}-[(1~{R})-1-[2-[7-[(1~{R},2~{R},4~{S})-2-amino-7-azabicyclo [2.2.1]heptane-7-carbonyl]-5-methoxy-3-methylimidazo [1,2-a]pyridin-2-yl]-1-(cyclopropylmethyl)pyrrolo[2,3-b]pyridin-6-yl]ethyl]-1-methoxycyclobutane-1-carboxamide]
0.0233	COc1cc(C(=O)N2[C@H]3CC[C@@H]2[C@H](N)C3)cc2nc(-c3cc4ccc([C@@H](C)NC(=O)C5(OC)CC5)nc4n3CC3CC3)c(C)n12 [Example 42, ~{N}-[(1~{R})-1-[2-[7-[(1~{R},2~{R},4~{S})-2-amino-7-azabicyclo [2.2.1]heptane-7-carbonyl]-5-methoxy-3-methylimidazo [1,2-a]pyridin-2-yl]-1-(cyclopropylmethyl)pyrrolo[2,3-b]pyridin-6-yl]ethyl]-1-methoxycyclopropane-1-carboxamide]
0.0496	COc1cc(C(=O)N2[C@H]3CC[C@@H]2[C@H](N)C3)cc2nc(-c3cc4ccc([C@@H](C)NC(=O)C5CC6(CCC6)C5)nc4n3CC3CC3)c(C)n12 [Example 43, ~{N}-[(1~{R})-1-[2-[7-[(1~{R},2~{R},4~{S})-2-amino-7-azabicyclo[2.2.1]heptane-7-carbonyl]-5-methoxy-3-methylimidazo [1,2-a]pyridin-2-yl]-1-(cyclopropylmethyl)pyrrolo[2,3-b]pyridin-6-yl]ethyl]spiro[3.3]heptane-2-carboxamide]
0.0251	COc1cc(C(=O)N2[C@H]3CC[C@@H]2[C@H](N)C3)cc2nc(-c3cc4ccc([C@@H](C)NC(=O)C5CC(O)(C(F)(F)F)C5)nc4n3CC3CC3)c(C)n12 (stereo partly shown) [Example 45, ~{N}-[(1~{R})-1-[2-[7-[(1~{R},2~{R},4~{S})-2-amino-7-azabicyclo[2.2.1]heptane-7-carbonyl]-5-methoxy-3-methylimidazo [1,2-a]pyridin-2-yl]-1-(cyclopropylmethyl)pyrrolo[2,3-b]pyridin-6-yl]ethyl]-3-hydroxy-3-(trifluoromethyl) cyclobutane-1-carboxamide]
0.0334	COc1cc(C(=O)N2[C@H]3CC[C@@H]2[C@H](N)C3)cc2nc(-c3cc4ccc([C@@H](C)NC(=O)c5cc(C)nc(Cl)c5)nc4n3CC3CC3)c(C)n12 [Example 46, ~{N}-[(1~{R})-1-[2-[7-[(1~{R},2~{R},4~{S})-2-amino-7-azabicyclo[2.2.1]heptane-7-carbonyl]-5-methoxy-3-methylimidazo [1,2-a]pyridin-2-yl]-1-(cyclopropylmethyl)pyrrolo[2,3-b]pyridin-6-yl]ethyl]-2-chloro-6-methylpyridine-4-carboxamide]
0.0242	COc1cc(C(=O)N2[C@H]3CC[C@@H]2[C@H](N)C3)cc2nc(-c3cc4ccc([C@@H](C)NC(=O)c5ccnc(C)c5)nc4n3CC3CC3)c(C)n12 [Example 47, ~{N}-[(1~{R})-1-[2-[7-[(1~{R},2~{R},4~{S})-2-amino-7-azabicyclo[2.2.1]heptane-7-carbonyl]-5-methoxy-3-methylimidazo [1,2-a]pyridin-2-yl]-1-(cyclopropylmethyl)pyrrolo[2,3-b]pyridin-6-yl]ethyl]-2-methylpyridine-4-carboxamide]
0.0344	COc1cc(C(=O)N2[C@H]3CC[C@@H]2[C@H](N)C3)cc2nc(-c3cc4ccc([C@@H](C)NC(=O)c5ccc(Cl)nc5)nc4n3CC3CC3)c(C)n12 [Example 48, ~{N}-[(1~{R})-1-[2-[7-[(1~{R},2~{R},4~{S})-2-amino-7-azabicyclo[2.2.1]heptane-7-carbonyl]-5-methoxy-3-methylimidazo [1,2-a]pyridin-2-yl]-1-(cyclopropylmethyl)pyrrolo[2,3-b]pyridin-6-yl]ethyl]-6-chloropyridine-3-carboxamide]
